Structures can show the parent of a compound that is named as a salt.

The target in the experiment is T1, human A2a receptor (Homo sapiens, UniProt P29274).
T1 construct: purchased Perkin-Elmer RBHA2AM400UA; host or cells: HEK293 cells, used as a membrane preparation
T1 sequence (P29274 whole entry): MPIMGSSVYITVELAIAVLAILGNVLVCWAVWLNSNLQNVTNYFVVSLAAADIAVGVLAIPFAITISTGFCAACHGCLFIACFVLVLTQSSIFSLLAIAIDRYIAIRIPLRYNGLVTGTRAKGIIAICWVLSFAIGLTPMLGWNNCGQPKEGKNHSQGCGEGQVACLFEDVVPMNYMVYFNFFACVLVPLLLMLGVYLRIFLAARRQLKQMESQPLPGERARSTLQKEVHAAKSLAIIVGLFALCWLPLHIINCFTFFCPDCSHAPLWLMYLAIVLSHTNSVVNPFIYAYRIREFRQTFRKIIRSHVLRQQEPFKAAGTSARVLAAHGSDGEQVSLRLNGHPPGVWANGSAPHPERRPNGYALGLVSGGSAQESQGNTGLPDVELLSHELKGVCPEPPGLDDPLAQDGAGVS
Description: A2a receptor competition binding assay (Scintillation Proximity). The settings on record: membranes from HEK293 cells expressing human A2a receptor; 0.5 nM tritiated ligand; Cheng-Prusoff; read-out: A2a Ki. As to the method: Binding affinities of compounds of the invention for the human A2a receptor were determined in a competition binding assay using Scintillation Proximity technology. Thus, 0.3 μg of membranes from HEK293 cells expressing the human A2a receptor were incubated with a compound of the invention at concentrations ranging from 3000 nM to 0.15 nM in a reaction mixture containing also 0.5 nM of a tritiated form of 5-amino-7-[2-phenethyl]-2-(furan-2-yl)-7H-pyrazolo[4,3-e][1,2,4]triazolo[1,5-c]pyrimidine (the tritiated compound) and 100 μg of wheat germ agglutin-coated yttrium silicate SPA beads for one hour at room temperature with agitation. The beads were then allowed to settle to the bottom of the wells for 1 hr, after which the membrane-associated radioactivity was determined by scintillation counting in a TopCount microplate reader. Ki values were determined using the Cheng-Prusoff equation.
Summary of Materials and Methods Used in A2a Activity Determination:
HEK293 cells expressing the human, rat, dog or monkey adenosine 2a receptor (Purchased from Perkin-Elmer #RBHA2AM400UA).
The Tritiated compound was prepared according to published methods.
Wheat germ agglutinin-coated yttrium silicate SPA beads (GE Healthcare #RPNQ0023). Dilute to 25 mg/ml in assay buffer.
Assay Buffer was prepared using Dulbecco's calcium and magnesium free phosphate buffered saline+10 mMMgCl2
Adenosine deaminase from calf intestine, 10 mg/2 ml (Roche #10 102 105 001).
A2a antagonist standard (9-chloro-1-(2-furanyl)-[1,2,4]triazolo1,5-c]quinazolin-5-amine from Tocris Bioscience)
Make eight 1:3 serial dilutions in 100% DMSO from a 3 mM compound stock
Transfer 50 nl of compound into a 384-well OptiPlate (Perkin Elmer).
Typically, final concentrations of compound used in the assay ranged from 3000 nM to 0.152 nM.
Dilute a solution of the Tritiated compound to 1.25 nM in assay buffer. This is a 2.5× solution. The final concentration in the assay is 0.5 nM. Calculate the concentration by counting two 5 μl aliquots.
Use 0.25 ug of membrane/well. Dilute membranes to 9.7 μg/ml in assay buffer. Treat with 20 ug/ml adenosine deaminase (ADA) for 15 minutes at room temperature to degrade endogenous adenosine.
Use 100 μg/well wheat germ agglutinin-coated yttrium silicate SPA beads.
Mix ADA-treated membranes and SPA beads together for 30 min prior to assay.
To the Perkin-Elmer Optiplate-384 containing the compound titration add 20 μl of 2.5× solution of the Tritiated compound and 30 μl of the membrane-bead mixture. Incubate for one hour at room temperature with agitation.
Include total binding (assay buffer+1% DMSO) and non-specific binding (CGS15943, 1 μM) wells.
Allow the beads to settle for one hour.
A curve fitting program (i.e., Prism, Activity Base, Chemcart) is used to determine the EC50. The Ki value is calculated using the Cheng-Prusoff equation. Ki=EC50/(1+(radioligand concentration/Kd))
In general terms: SPA uses beads or plates that emit light when radiolabelled molecules are held near them.
In general, Ki refers to the equilibrium dissociation constant of an inhibitor or competing ligand from its target. Turning to `Nc1nc2c(F)cccc2c2nc(Cc3ccccc3CN3CCN(c4ncccn4)CC3)cn12` [Ex-71, 7-fluoro-2-(2-((4-(pyrimidin-2-yl)piperazin-l-yl)methyl)benzyl) imidazo[1,2-c]quinazolin-5-amine], the Ki worked out at 5.3 nM.
`Nc1nc2c(F)cccc2c2nc(Cc3ccccc3CN3CCC(N4CCOCC4)CC3)cn12` [Ex-73]: the Ki turned out to be 4.2 nM.
The value for `Nc1nc2c(F)cccc2c2nc(Cc3cccc(-c4cccnc4)c3)cn12` [Ex-74, 7-fluoro-2-(3-(pyridin-3-yl)benzyl)imidazo[1,2-c]quinazolin-5-amine] was 4.5 nM.
With `CC(c1ccc(-c2cccc(Cc3cn4c(N)nc5c(F)cccc5c4n3)c2)cc1)N1CCOCC1` (stereo not drawn) [Ex-75, 7-fluoro-2-((4′-(l-morpholinoethyl)-[1,1′-biphenyl]-3-yl)methyl)imidazo[1,2-c]quinazolin-5-amine], the Ki worked out at 6 nM.
Consider `Nc1nc2c(F)cccc2c2nc(Cc3ccc(-c4ccc(F)cn4)cc3)cn12` [Ex-76, 7-fluoro-2-(4-(5-fluoropyridin-yl)benzyl)imidazo[1,2-c]quinazolin-5-amine], for which the Ki came out at 10 nM.
For the compound `Nc1nc2c(F)cccc2c2nc(Cc3cccc(-c4ccc5nonc5c4)c3)cn12` [Ex-77, 2-(3-(benzo[c][1,2,5]oxadiazol-5-yl)benzyl)-7-fluoroimidazo[1,2-c]quinazolin-5-amine], the Ki stood at 12 nM.
Take `COc1ccc(-c2ccc(Cc3cn4c(N)nc5c(F)cccc5c4n3)cc2)cc1` [Ex-78, 7-fluoro-2-((4′-methoxy-[1,1′-biphenyl]-4-yl)melhyl)imidazo[1,2-c]quinazolin-5-amine]: the Ki was found to be 120 nM.
The result for `COc1cccc2c1nc(N)n1cc(Cc3c(F)cccc3-c3ccc(C(F)(F)F)nc3)nc21` [Ex-79, 2-(2-fluoro-6-(6-(trifluoromethyl)pyridin-3-yl)benzyl)-7-methoxyimidazo[1,2-c]quinazolin-5-amine] reads 2.4 nM; that for `COc1cccc2c1nc(N)n1cc(Cc3cccnc3-c3cncnc3)nc21` [Ex-80, 7-methoxy-2-((2-(pyrimidin-5-yl)pyridin-3-yl)methyl)imidazo[1,2-c]quinazolin-5-amine], 11 nM; that for `Nc1nc2c(F)cccc2c2nc(Cc3cc(F)ccc3-c3cncnc3)cn12` [Ex-81, 7-fluoro-2-(5-fluoro-2-(pyrimidin-5-yl)benzyl)imidazo[1,2-c]quinazolin-5-amine], 14 nM.
As to `Nc1nc2c(F)cccc2c2nc(Cc3ccc(-c4cnccn4)cc3)cn12` [Ex-82, 7-fluoro-2-(4-(pyrazin-2-yl)benzyl)imidazo[1,2-c]quinazolin-5-amine], the inhibition constant Ki was determined as 27 nM.
The result for `Nc1nc2c(F)cccc2c2nc(Cc3cc(F)ccc3-c3ccnc(N4CCOCC4)c3)cn12` [Ex-83] reads 6.9 nM.
Consider `Nc1nc2c(F)cccc2c2nc(Cc3ccc(C(=O)Nc4ccccn4)cc3)cn12` [Ex-84, 4-((5-amino-7-fluoroimidazo[1,2-c]quinazolin-2-yl)methyl)-N-(pyridin-2-yl)benzamide], for which the Ki was determined as 3.8 nM.
As to `Nc1nc2c(F)cccc2c2nc(Cc3cccc(C(=O)Nc4ccccn4)c3)cn12` [Ex-85, 3-((5-amino-7-fluoroimidazo[1,2-c]quinazolin-2-yl)methyl)-N-(pyridin-2-yl)benzamide], the Ki came out at 9.7 nM.
Consider `Cn1c(NC(=O)c2ccc(Cc3cn4c(N)nc5c(F)cccc5c4n3)cc2)nc2ccccc21` [Ex-86, 5-amino-7-fluoro-2-(4-((1-methyl-1H-benzo[d]imidazol-2-yl)carbamoyl)benzyl)imidazo[1,2-c]quinazolin-6-ium formate], for which the Ki amounted to 44 nM.
The result for `Nc1nc2c(F)cccc2c2nc(Cc3ccc(C(=O)NC4(c5ccccc5)CC4)cc3)cn12` [Ex-87, 4-((5-amino-7-fluoroimidazo[1,2-c]quinazolin-2-yl)methyl)-N-(1-phenylcyclopropyl)benzamide] reads 40 nM.

(Values after patent US11498923B2 (Merck Sharp & Dohme Corp., priority 2017, dated 2022).)
